# Legend:
# Type in all cases: cell-based
# [1] = system: Fusobacterium gonidiaformans; test: Agar method MIC; conditions: for CS MIC: Agar
# [2] = system: Clostridium perfringes; test: Broth method MIC; conditions: for CS MIC: Broth (study 2)
# [3] = system: Aspergillus niger; test: Microbial challenge of CS gel
# Protocol: (§1) 6% CS was prepared in water as a translucent gel. Twenty grams of the gel was placed in a plastic screw-cap centrifuge tube. The microbial inoculants were prepared, gently vortexed and 0.1 ml inoculant was aseptically pipetted into the 20.0 gram gel. This procedure was repeated for each microbial organism. The samples were incubated at room temperature (20-25° C.) for 14 days or 28 days. The microbes tested and their theoretical yields can be found in Table F. After 14 or 28 days incubation, dilutions (10^−1, 10^−2, 10^−3) of the gels were made in saline and 1 ml plated onto Sabouraud dextrose (Aspergillus and Candida) or onto tryptic soy (other microbes). The number of organisms that grew after 3-7 days at room temperature were counted.
# (§2) In another study, CS was dissolved in water at the concentrations indicated below. No other ingredients, including preservatives, were added. The gels were challenged with microbes as described above except that the gels were examined for the presence of microbes after 1, 2, 3, 4 and 7 days. The amount of microbes origially inoculated in the gels is also shown below.
# [4] = system: Candida albicans; test: Microbial challenge of CS gel
# Protocol: as §1, §2
# [5] = system: Pseudomonas aeruginosa; test: Microbial challenge of CS gel
# Protocol: as §1, §2
# [6] = system: Escherichia coli; test: Microbial challenge of CS gel
# Protocol: as §1, §2
# [7] = system: Bacteroides thetaiotaomicron; test: Agar method MIC
# [8] = system: Porphyromonas asaccharolytica; test: Agar method MIC; conditions: for CS MIC: Agar
# [9] = system: Bacteroides fragilis; test: Broth method MIC
# [10] = system: Porphyromonas levii; test: Agar method MIC; conditions: for CS MIC: Agar
# [11] = Example 8, agar, 48 hours anaerobic, highest tested 625 μg/ml
# [12] = CS gel in as low a concentration as 0.6%
substance,measurement,setting,value
sodium cellulose sulfate,lowest concentration of compound that inhibited growth,[1]; [11],156 µg/mL
same,CS MIC,[1]; rma# 11423,>625 µg/mL
same,CS MIC,[1]; rma# 11653,156 µg/mL
same,growth inhibition,[2]; at the concentrations tested,inhibited one strain of Clostridium perfringes but not another one
same,CS MIC,[2]; rma# 11608,10000 µg/mL
same,CS MIC,[2]; rma# 11655,NI (not inhibited by 10 mg/ml (the highest concentration tested))
same,Day 14 CFU/g,"[3]; 6% CS gel, ATCC 16404, room temperature, Day 14",0 CFU/g
same,Day 28 CFU/g,"[3]; 6% CS gel, ATCC 16404, room temperature, Day 28",0 CFU/g
same,Asperigillus niger CFU,"[3]; CS 0.06% in water, 24 hours",0 CFU × 10^5/ml
same,Asperigillus niger CFU,"[3]; CS 0.06% in water, 48 hours",0 CFU × 10^5/ml
same,Asperigillus niger CFU,"[3]; CS 0.06% in water, 72 hours",0 CFU × 10^5/ml
same,Asperigillus niger CFU,"[3]; CS 0.06% in water, 96 hours",0 CFU × 10^5/ml
same,Asperigillus niger CFU,"[3]; CS 0.06% in water, 7 days",0 CFU × 10^5/ml
same,Asperigillus niger CFU,"[3]; CS 0.6% in water, 24 hours",0 CFU × 10^5/ml
same,Asperigillus niger CFU,"[3]; CS 0.6% in water, 48 hours",0 CFU × 10^5/ml
same,Asperigillus niger CFU,"[3]; CS 0.6% in water, 72 hours",0 CFU × 10^5/ml
same,Asperigillus niger CFU,"[3]; CS 0.6% in water, 96 hours",0 CFU × 10^5/ml
same,Asperigillus niger CFU,"[3]; CS 0.6% in water, 7 days",0 CFU × 10^5/ml
same,Asperigillus niger CFU,"[3]; CS 1.2% in water, 24 hours",0 CFU × 10^5/ml
same,Asperigillus niger CFU,"[3]; CS 1.2% in water, 48 hours",0 CFU × 10^5/ml
same,Asperigillus niger CFU,"[3]; CS 1.2% in water, 72 hours",0 CFU × 10^5/ml
same,Asperigillus niger CFU,"[3]; CS 1.2% in water, 96 hours",0 CFU × 10^5/ml
same,Asperigillus niger CFU,"[3]; CS 1.2% in water, 7 days",0 CFU × 10^5/ml
same,Asperigillus niger CFU,"[3]; CS 6% in water, 24 hours",0 CFU × 10^5/ml
same,Asperigillus niger CFU,"[3]; CS 6% in water, 48 hours",0 CFU × 10^5/ml
same,Asperigillus niger CFU,"[3]; CS 6% in water, 72 hours",0 CFU × 10^5/ml
same,Asperigillus niger CFU,"[3]; CS 6% in water, 96 hours",0 CFU × 10^5/ml
same,Asperigillus niger CFU,"[3]; CS 6% in water, 7 days",0 CFU × 10^5/ml
same,inactivation of Asperigillus,[3]; [12],completely inactivated
same,Day 14 CFU/g,"[4]; 6% CS gel, ATCC 10231, room temperature, Day 14",0 CFU/g
same,Day 28 CFU/g,"[4]; 6% CS gel, ATCC 10231, room temperature, Day 28",0 CFU/g
same,Candida albicans CFU,"[4]; CS 0.06% in water, 24 hours",0 CFU × 10^5/ml
same,Candida albicans CFU,"[4]; CS 0.06% in water, 48 hours",0 CFU × 10^5/ml
same,Candida albicans CFU,"[4]; CS 0.06% in water, 72 hours",0 CFU × 10^5/ml
same,Candida albicans CFU,"[4]; CS 0.06% in water, 96 hours",0 CFU × 10^5/ml
same,Candida albicans CFU,"[4]; CS 0.06% in water, 7 days",0 CFU × 10^5/ml
same,Candida albicans CFU,"[4]; CS 0.6% in water, 24 hours",0 CFU × 10^5/ml
same,Candida albicans CFU,"[4]; CS 0.6% in water, 48 hours",0 CFU × 10^5/ml
same,Candida albicans CFU,"[4]; CS 0.6% in water, 72 hours",0.62 CFU × 10^5/ml
same,Candida albicans CFU,"[4]; CS 0.6% in water, 96 hours",0.655 CFU × 10^5/ml
same,Candida albicans CFU,"[4]; CS 0.6% in water, 7 days",0.535 CFU × 10^5/ml
same,Candida albicans CFU,"[4]; CS 1.2% in water, 24 hours",0 CFU × 10^5/ml
same,Candida albicans CFU,"[4]; CS 1.2% in water, 48 hours",0 CFU × 10^5/ml
same,Candida albicans CFU,"[4]; CS 1.2% in water, 72 hours",0 CFU × 10^5/ml
same,Candida albicans CFU,"[4]; CS 1.2% in water, 96 hours",0 CFU × 10^5/ml
same,Candida albicans CFU,"[4]; CS 1.2% in water, 7 days",0 CFU × 10^5/ml
same,Candida albicans CFU,"[4]; CS 6% in water, 24 hours",0 CFU × 10^5/ml
same,Candida albicans CFU,"[4]; CS 6% in water, 48 hours",0 CFU × 10^5/ml
same,Candida albicans CFU,"[4]; CS 6% in water, 72 hours",0 CFU × 10^5/ml
same,Candida albicans CFU,"[4]; CS 6% in water, 96 hours",0 CFU × 10^5/ml
same,Candida albicans CFU,"[4]; CS 6% in water, 7 days",0 CFU × 10^5/ml
same,inactivation of Candida,[4]; CS gel 1.2 and 6%,Complete inactivation
same,inactivation of Candida,[4]; [12],inactivated
same,inactivation of Pseudomonas,[5]; 6% CS gel,completely inactivated
same,Day 14 CFU/g,"[5]; 6% CS gel, ATCC 9027, room temperature, Day 14",0 CFU/g
same,Day 28 CFU/g,"[5]; 6% CS gel, ATCC 9027, room temperature, Day 28",0 CFU/g
same,Pseudomans aeruginosa CFU,"[5]; CS 0.06% in water, 24 hours",0 CFU × 10^5/ml
same,Pseudomans aeruginosa CFU,"[5]; CS 0.06% in water, 48 hours",0.48 CFU × 10^5/ml
same,Pseudomans aeruginosa CFU,"[5]; CS 0.06% in water, 72 hours",1.125 CFU × 10^5/ml
same,Pseudomans aeruginosa CFU,"[5]; CS 0.06% in water, 96 hours",1.87 CFU × 10^5/ml
same,Pseudomans aeruginosa CFU,"[5]; CS 0.06% in water, 7 days",2.04 CFU × 10^5/ml
same,Pseudomans aeruginosa CFU,"[5]; CS 0.6% in water, 24 hours",5.43 CFU × 10^5/ml
same,Pseudomans aeruginosa CFU,"[5]; CS 0.6% in water, 48 hours",6.80 CFU × 10^5/ml
same,Pseudomans aeruginosa CFU,"[5]; CS 0.6% in water, 72 hours",4.43 CFU × 10^5/ml
same,Pseudomans aeruginosa CFU,"[5]; CS 0.6% in water, 96 hours",6.92 CFU × 10^5/ml
same,Pseudomans aeruginosa CFU,"[5]; CS 0.6% in water, 7 days",6.05 CFU × 10^5/ml
same,Pseudomans aeruginosa CFU,"[5]; CS 1.2% in water, 24 hours",2.08 CFU × 10^5/ml
same,Pseudomans aeruginosa CFU,"[5]; CS 1.2% in water, 48 hours",2.625 CFU × 10^5/ml
same,Pseudomans aeruginosa CFU,"[5]; CS 1.2% in water, 72 hours",2.31 CFU × 10^5/ml
same,Pseudomans aeruginosa CFU,"[5]; CS 1.2% in water, 96 hours",2.82 CFU × 10^5/ml
same,Pseudomans aeruginosa CFU,"[5]; CS 1.2% in water, 7 days",4.79 CFU × 10^5/ml
same,Pseudomans aeruginosa CFU,"[5]; CS 6% in water, 24 hours",0 CFU × 10^5/ml
same,Pseudomans aeruginosa CFU,"[5]; CS 6% in water, 48 hours",0 CFU × 10^5/ml
same,Pseudomans aeruginosa CFU,"[5]; CS 6% in water, 72 hours",0 CFU × 10^5/ml
same,Pseudomans aeruginosa CFU,"[5]; CS 6% in water, 96 hours",0 CFU × 10^5/ml
same,Pseudomans aeruginosa CFU,"[5]; CS 6% in water, 7 days",0 CFU × 10^5/ml
same,inactivation of Pseudomonas,[5]; lower CS concentrations,not inactivated but growth was prevented
same,inactivation of Escherichia,[6]; 6% CS gel,completely inactivated
same,Day 14 CFU/g,"[6]; 6% CS gel, ATCC 8739, room temperature, Day 14",0 CFU/g
same,Day 28 CFU/g,"[6]; 6% CS gel, ATCC 8739, room temperature, Day 28",0 CFU/g
same,Escherichia coli CFU,"[6]; CS 0.06% in water, 24 hours",0 CFU × 10^5/ml
same,Escherichia coli CFU,"[6]; CS 0.06% in water, 48 hours",1.15 CFU × 10^5/ml
same,Escherichia coli CFU,"[6]; CS 0.06% in water, 72 hours",1.21 CFU × 10^5/ml
same,Escherichia coli CFU,"[6]; CS 0.06% in water, 96 hours",0.13 CFU × 10^5/ml
same,Escherichia coli CFU,"[6]; CS 0.06% in water, 7 days",1.12 CFU × 10^5/ml
same,Escherichia coli CFU,"[6]; CS 0.6% in water, 24 hours",5.6 CFU × 10^5/ml
same,Escherichia coli CFU,"[6]; CS 0.6% in water, 48 hours",5.81 CFU × 10^5/ml
same,Escherichia coli CFU,"[6]; CS 0.6% in water, 72 hours",4.43 CFU × 10^5/ml
same,Escherichia coli CFU,"[6]; CS 0.6% in water, 96 hours",6.92 CFU × 10^5/ml
same,Escherichia coli CFU,"[6]; CS 0.6% in water, 7 days",4.39 CFU × 10^5/ml
same,Escherichia coli CFU,"[6]; CS 1.2% in water, 24 hours",0.98 CFU × 10^5/ml
same,Escherichia coli CFU,"[6]; CS 1.2% in water, 48 hours",3.125 CFU × 10^5/ml
same,Escherichia coli CFU,"[6]; CS 1.2% in water, 72 hours",1.625 CFU × 10^5/ml
same,Escherichia coli CFU,"[6]; CS 1.2% in water, 96 hours",4.54 CFU × 10^5/ml
same,Escherichia coli CFU,"[6]; CS 1.2% in water, 7 days",3.78 CFU × 10^5/ml
same,Escherichia coli CFU,"[6]; CS 6% in water, 24 hours",0 CFU × 10^5/ml
same,Escherichia coli CFU,"[6]; CS 6% in water, 48 hours",0.01 CFU × 10^5/ml
same,Escherichia coli CFU,"[6]; CS 6% in water, 72 hours",0 CFU × 10^5/ml
same,Escherichia coli CFU,"[6]; CS 6% in water, 96 hours",0 CFU × 10^5/ml
same,Escherichia coli CFU,"[6]; CS 6% in water, 7 days",0 CFU × 10^5/ml
same,inactivation of Escherichia,"[6]; lower CS concentrations (except 0.06% CS gel), no growth occurs",either not inactivated or only to a minor extent
same,CS MIC,[7]; ATCC (first listed),>625 µg/mL
same,CS MIC,[7]; rma# 11604,>625 µg/mL
same,CS MIC,[7]; rma# 11651,>625 µg/mL
same,lowest concentration of compound that inhibited growth,[8]; [11],80 µg/mL
same,CS MIC,[8]; rma# 11612,80 µg/mL
same,CS MIC,[8]; rma# 11656,>625 µg/mL
same,CS MIC,"[9]; ATCC (first listed), Broth (study 1)",NI (not inhibited by 10 mg/ml (the highest concentration tested))
same,CS MIC,"[9]; ATCC (first listed), Broth (study 2)",10000 µg/mL
same,CS MIC,"[9]; ATCC (second listed), Broth (study 2)",NI (not inhibited by 10 mg/ml (the highest concentration tested))
same,growth inhibition,[9]; at the concentrations tested,one strain of Bacteroides fragilis was inhibited but three others were not
same,CS MIC,"[9]; rma# 11647, Broth (study 2)",NI (not inhibited by 10 mg/ml (the highest concentration tested))
same,CS MIC,"[9]; rma# 11652, Broth (study 2)",NI (not inhibited by 10 mg/ml (the highest concentration tested))
same,lowest concentration of compound that inhibited growth,[10]; [11],40 µg/mL
same,CS MIC,[10]; rma# 11425,>625 µg/mL
same,CS MIC,[10]; rma# 11601,40 µg/mL

# — patent publication US7235536B2, “Cellulose sulfate and other sulfated polysaccharides to prevent and treat papilloma virus infection and other infections” (Rush Presbyterian-St. Luke's Medical Center, priority 2000, dated 2007)
